Test results taken from patent publication US9408827B2, “Sheet for cutaneous application containing vitamin E or an ester thereof” (IneSalus Corp., priority 2013, dated 2016).

Key:
[1] = test system: reconstituted human epidermis Epi-200 EpiDerm™; experiment: Release of IL-1α in the culture medium (ELISA); settings: 18-hour treatment; Tukey Kramer Multiple Comparisons Test
Experimental: Tissue used: EPI-200-SIT EpiDerm™
Culture medium: EPI-100-MM-HCF-60
(§1) Incubation conditions: +37° C. in a 5% CO2 atmosphere
(§2) Treatment with the sample: • continuous contact and incubation for 18 hours (single) • continuous contact and incubation for 7 days (double)
Controls Performed for the First Evaluation (18 Hours): • Negative control after 18 hours: inserts not treated • Positive control: inserts treated with 0.5% SDS (Sodium Dodecylsulphate) in sterile water during 18 hours of incubation;
Controls Performed for the 7-Day Evaluation: • Negative control: inserts not treated with the sample and kept for 7 days in the same incubation conditions as those treated with the sample.
Evaluation of the Release of IL-1α in the Culture Medium:
Evaluation in the culture medium obtained after the period of incubation of the sample with EPI-200. The release is measured by means of specific ELISA.

[2] = test system: reconstituted human epidermis Epi-200 EpiDerm™; experiment: Release of lactate dehydrogenase (LDH) in the culture medium; settings: 18-hour treatment; Tukey Kramer Multiple Comparisons Test
Text: Further information for better defining the irritation potential was obtained from subsequent measurement of the following parameters: • evaluation of the release, in the culture medium, of the lactate dehydrogenase (LDH), a cytoplasmic enzyme, release of which indicates loss of integrity of the cellular membrane; • evaluation of the release, in the culture medium, of pro-inflammatory cytokine by means of ELISA (Enzyme Linked Immunosorbent Assay).
Tissue used: EPI-200-SIT EpiDerm™
Culture medium: EPI-100-MM-HCF-60
as §1, §2
(§3) Application was carried out by applying about 1 cm^2 of sample (i.e. of the sheet according to the invention obtained as per the example given above) per insert.
(§4) Controls Performed for the First Evaluation (18 Hours): • Negative control after 18 hours: inserts not treated • Positive control: inserts treated with 0.5% SDS (Sodium Dodecylsulphate) in sterile water during 18 hours of incubation; […]
Evaluation in the culture medium obtained after the incubation period of the sample with the epidermis model. The culture medium is incubated with a specific reagent so as to allow quantitive determination of the lactate dehydrogenase at 490 nm.

[3] = test system: reconstituted human epidermis Epi-200 EpiDerm™; experiment: Evaluation of the cellular vitality by MTT assay (EpiDerm Skin Irritation Test EPI-200-SIT)
Experimental: The tolerability of the sheets according to the invention was evaluated by means of an in-vitro assay on models of reconstituted epidermis for evaluation of the cumulative irritation.
The assay in question was based on the In vitro Epiderm™ Skin Irritation Test (EPI-200-SIT) developed by the MatTek Corporation, which uses the model of reconstituted human epidermis Epi-200 EpiDerm™.
The assay consists in topical application of the material under testing on the reconstituted epidermis for contact times equal to or greater than 18 hours. The irritation potential is determined by means of evaluation of the cellular vitality using the MTT assay.
Conditions for Conducting the Assay for Evaluation of the Cellular Vitality
Tissue used: EPI-200-SIT EpiDerm™
Culture medium: EPI-100-MM-HCF-60
as §1, §2, §3, §4

## CCCCCCCCCCCCOS(=O)(=O)[O-].[Na+] [Positive control, Sodium Dodecylsulphate]
[1]
  Release of IL-1α, statistical comparison in relation to the negative control: *** (*** p < 0.001 extremely significant variation)
[2]
  Release of LDH, statistical comparison in relation to the negative control: *** (*** p < 0.001 extremely significant variation)
[3]; 18-hour continuous contact and incubation
  Average value of OD ± SD (MTT): 0.185 ± 0.004
[3]; 18-hour treatment, relative to negative control = 100%
  Average value of the % vitality (MTT): 8.40 ± 0.17%
